TGI data for 29 molecules are collected here from PubChem BioAssay (NCI).

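Method: 48-hour compound exposure of cells in 96-well plates, five concentrations, linear interpolation of endpoints. TGI: concentration producing complete growth inhibition.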 *1 amine or outer side, *2 acyl side, *3 side chain or, on linkers, in order; H or OH if unused. Where a SMILES comes first, the peptide text is derived from it. Bridges are numbered along the chain shown (N, C = ends). Roman numbers before positions name the chains, in order. [ ]: non-standard residue; d: D form. ξ: configuration not given here. X54 = N=C(N)NCCC[C@@H](NC(=N)CCCCCCC(=N)N[C@H](CCCNC(=N)N)C(=O)[*:2])C(=O)[*:1]; dIgl = N[C@@H](C(=O)O)C1Cc2ccccc2C1; Hyp = O=C(O)[C@@H]1C[C@@H](O)CN1; ξIgl = NC(C(=O)O)C1Cc2ccccc2C1; ξOic = O=C(O)C1CC2CCCCC2N1; ξR = N=C(N)NCCCC(N)C(=O)O; ξP = O=C(O)C1CCCN1; ξS = NC(CO)C(=O)O

Experiment in all cases: DTP human tumour cell line panel, 48 h
For assay [1], the system named is KM12 colon.
For assay [2], the system named is M14 melanoma.
The subject of assay [3] is HCT-15 colon.
Assay [4] has as its system SF-295 CNS.
Assay [5] has as its system MCF7 breast.
The subject of assay [6] is SK-OV-3 ovarian.
The subject of assay [7] is HT29 colon.
Assay [8] has as its system ACHN renal.
The subject of assay [9] is SK-MEL-28 melanoma.
The subject of assay [10] is A498 renal.

As for `Cn1c(-c2ccc(-c3cc(-c4cccs4)c(-c4cccs4)n3C)cc2)cc(-c2cccs2)c1-c1cccs1`, the TGI in assay [1], in assay [2], in assay [3], in assay [4], in assay [5] and in assay [6] was above 100 µM each time. In addition, the TGI in [7], in assay [8] and in assay [9] was above 100 µM in each case.
Regarding `O=c1[nH]c2ccccc2c(O)c1Cc1ccccc1`, the TGI in [10], in assay [1], in assay [3], in [4], in assay [5] and in assay [7] was above 100 µM each time. In addition, the TGI in [8] and in assay [9] was above 100 µM each time.
Turning to `N=C(N)NCCCC(NC(=O)C1CC2CCCCC2N1C(=O)[C@H](NC(=O)C(CO)NC(=O)C(NC(=O)CNC(=O)[C@@H]1C[C@@H](O)CN1C(=O)C1CCCN1C(=O)C(CCCNC(=N)N)NC(=O)[C@@H](CCCNC(=N)N)NC(=N)CCCCCCC(=N)N[C@H](CCCNC(=N)N)C(=O)NC(CCCNC(=N)N)C(=O)N1CCCC1C(=O)N1C[C@H](O)C[C@H]1C(=O)NCC(=O)NC(C(=O)NC(CO)C(=O)N[C@@H](C(=O)N1C(C(=O)NC(CCCNC(=N)N)C(=O)O)CC2CCCCC21)C1Cc2ccccc2C1)C1Cc2ccccc2C1)C1Cc2ccccc2C1)C1Cc2ccccc2C1)C(=O)O` (stereo not given in full) (I: [ξR][ξP][Hyp]G[ξIgl][ξS][dIgl][ξOic][ξR]-OH / II: [ξR][ξP][Hyp]G[ξIgl][ξS][dIgl][ξOic][ξR]-OH; linker I:N-II:N via X54), the TGI (commonly the concentration giving total growth inhibition) turned out to be 4.13 µM in assay [1]; 7.23 µM in assay [2]; 4.64 µM in [3]; 4.3 µM in assay [4]; 4.04 µM in assay [5]; 3.74 µM in assay [6]. For the same molecule, the TGI in [7] worked out at 2.12 µM; in assay [8] it was 3.91 µM; in [9], 3.64 µM.
Regarding `CC(=O)C1=C(C)O[C@@H]2O[C@H](COCc3ccccc3)[C@@H](OCc3ccccc3)[C@H](O)[C@@H]2S1`, the TGI in [10] worked out at 71 µM; in [1], 38.1 µM; in assay [2], 39.8 µM; in assay [3], 71.6 µM; in assay [4], 31.3 µM; in assay [6] it was 87.6 µM. Besides, the results for the TGI in [7], in [8] and in assay [9] were 43.2 µM, 52.5 µM and 64 µM, respectively.
Turning to `Cn1c(-c2ccc[se]2)ccc1-c1ccc(C=O)[se]1`, the TGI in [10] is 3.01 µM; in assay [1], above 100 µM; in [2], above 100 µM; in [3] it was above 100 µM; in assay [4], 58.8 µM; in assay [6] it was 42.3 µM. Besides, the TGI in assay [7], in assay [8] and in assay [9] was above 100 µM throughout.
`CN(c1ccccc1)S(=O)(=O)c1ccc([N+](=O)[O-])cc1`: the TGI in [1], in [2], in [3], in [4], in assay [5] and in [7] was above 100 µM each time. For the same molecule, the TGI in [8] and in [9] was above 100 µM each time.
Regarding `Cc1ccccc1NC(=O)Cc1csc(N/N=C2\NC(=O)/C(=C/c3cccc([N+](=O)[O-])c3)S2)n1`, the TGI in assay [1] was 34.2 µM; in assay [2] it was 31.3 µM; in [3], 29.3 µM; in [4], 41.8 µM; in assay [5], above 100 µM; in assay [6], 74.6 µM. In addition, the TGI was above 100 µM in assay [7], 28.9 µM in assay [8] and 55.3 µM in [9].
As for `Fc1ccc(-c2sc(-c3ccsc3)cc2Cc2ccsc2)cc1`, the TGI in assay [1], in assay [2], in assay [3], in assay [4], in assay [5] and in [6] was above 10 µM in each case. In addition, the TGI in assay [7] and in assay [9] was above 10 µM in each case.
As for `Cc1ccc(/C=C/C(=O)Oc2ccc(/C=C3\CCC/C(=C\c4ccc(OC(=O)/C=C/c5ccc(C)cc5)cc4)C3=O)cc2)cc1`, the TGI in assay [1], in assay [2], in assay [3], in assay [4], in assay [5] and in assay [7] was above 100 µM throughout. The TGI in assay [8] and in assay [9] was above 100 µM each time.
In the case of `O[C@@H]1C[C@H](Cl)c2c(Cl)sc(Cl)c21`, the TGI in [1], in assay [2], in assay [3], in assay [4], in assay [5] and in assay [6] was above 100 µM throughout. Besides, the TGI in assay [7], in assay [8] and in [9] was above 100 µM throughout.
As for `COc1ccc2c(c1)Oc1cc(O)ccc1[C@H]2c1ccccc1C(=O)NC(C)c1ccccc1` (stereo not given in full), the TGI in assay [10] worked out at 30.8 µM; in assay [1] it was 36.5 µM; in assay [2], 26.1 µM; in [3] it was 35.5 µM; in assay [4], 25.9 µM; in assay [6] it was 39.3 µM. In addition, the TGI in assay [7] came out at 41.5 µM; in assay [8] it was 29.8 µM; in assay [9], 34.7 µM.
As for `CC(C)OP(=S)(NC(=S)c1ccccc1)OC(C)C`, the TGI in assay [10], in assay [1], in assay [2], in [3], in assay [4] and in [6] was above 100 µM throughout. The TGI in assay [7], in assay [8] and in assay [9] was above 100 µM in each case.
For the molecule `COc1cccc2c1OC1Sc3ccccc3-c3nn(-c4ccccc4)c-2c31` (stereo not given), the TGI in assay [10], in [1], in assay [4], in assay [6], in assay [7] and in assay [8] was above 100 µM each time. The TGI in assay [9] is above 100 µM.
As to `O=P(O)(O)c1ccc(-c2ccc(I)cc2)cc1`, the TGI in assay [1], in [2], in assay [3], in assay [5], in assay [6] and in assay [7] was above 100 µM in each case. In addition, the TGI in assay [8] and in assay [9] was above 100 µM each time.
As for `Clc1cc(-c2ccccc2)nc(Nc2nc3ccccc3[nH]2)n1`, the TGI is 98.3 µM in assay [10]; above 100 µM in assay [1]; 63 µM in assay [2]; 22 µM in assay [3]; above 100 µM in assay [4]; above 100 µM in [6]. Moreover, the TGI came to 45.6 µM in assay [7] and 33.3 µM in [8].
Take `CCC12CCCN(Cc3ccccc3)C1c1c(n(C)c3ccccc13)C(CO)C2` (stereo not given): the TGI in [1] worked out at 89.4 µM; in assay [3], 78.1 µM; in assay [4], 64.7 µM; in assay [6] it was 194 µM; in assay [7], 72.2 µM; in assay [9] it was 150 µM.
Take `Cc1c(Cc2ccccc2)n(C(C)OCCN(OC(=O)Oc2ccccc2)C(=O)Oc2ccccc2)c(=O)[nH]c1=O` (stereo not given): the TGI in assay [1] turned out to be 29.9 µM; in assay [2], 32 µM; in assay [3], 28.3 µM; in assay [4], 30.8 µM; in assay [5] it was 63.8 µM; in assay [6] it was 46.3 µM. The values for the TGI in assay [7], in [8] and in assay [9] were 32.1 µM, 57.3 µM and 42 µM, respectively.
With `Cc1cc(=O)oc2cc(OCCCOc3ccc4c(C)cc(=O)oc4c3)ccc12`, the TGI in assay [10], in [2], in [3], in assay [4], in assay [7] and in assay [8] was above 100 µM throughout. The molecule further yielded a TGI in assay [9] above 100 µM.
Turning to `Nc1nc(Cl)cc(OCC2(CO)CCCC2)n1`, the TGI in assay [10], in assay [3], in assay [4], in [5], in assay [7] and in assay [8] was above 100 µM in each case. The same molecule registered a TGI in assay [9] above 100 µM.
Regarding `CC(C)(C)N/N=C(\C(=O)Nc1cccc(Cl)c1)C1C(=O)Nc2ccccc2S1=O` (stereo not given), the TGI in assay [1], in [2], in assay [3], in [4], in assay [6] and in assay [7] was above 100 µM in each case. Moreover, the TGI in assay [8] and in [9] was above 100 µM in each case.
Take `CN(C)CN1CSC(=S)N(CN(C)C)C1`: the TGI in assay [10], in assay [1], in assay [2], in assay [3], in [4] and in assay [7] was above 100 µM in each case. For the same molecule, the TGI in assay [8] and in assay [9] was above 100 µM in each case.
For the molecule `CCOC(=O)c1c(NS(=O)(=O)c2ccc(C)cc2)sc2c1CCCC2`, the TGI is above 100 µM in assay [10]; 93.8 µM in assay [1]; above 100 µM in assay [2]; 42.1 µM in assay [3]; above 100 µM in assay [4]; above 100 µM in assay [5]. Also, the figures for the TGI in assay [7] and in assay [8] were 47.6 µM and above 100 µM, respectively.
`CC(C)(C)NC1=NC(C(F)(F)F)(C(F)(F)F)NC(=O)N1`: the TGI in assay [1], in assay [2], in assay [3], in assay [4], in assay [5] and in assay [6] was above 100 µM in each case. The TGI in assay [7], in [8] and in assay [9] was above 100 µM in each case.
In the case of `COc1cccc2c1C(=O)c1c(O)c3c(c(O)c1C2=O)C[C@@](O)(C(C)=O)CC3S(=O)(=O)O` (stereo not given in full), the TGI in assay [10], in [1], in [2], in assay [3], in assay [4] and in assay [6] was above 100 µM throughout. Moreover, the TGI in [7], in [8] and in assay [9] was above 100 µM in each case.
For the molecule `CCc1cc(C)cc2[n+]1CC=C2`, the TGI in assay [1] is above 100 µM; in assay [2], 80.7 µM; in assay [4] it was above 100 µM; in [7], 75.2 µM; in assay [8] it was 35.4 µM; in assay [9] it was above 100 µM.
Consider `O=C(CN1CCCC1=O)CS(=O)(=O)c1ccccc1`, for which the TGI in assay [1], in [2], in assay [4], in [5], in [7] and in assay [8] was above 100 µM in each case. For the same molecule, the TGI in [9] was above 100 µM.
As for `Nc1nc(NCCOCP(=O)(O)O)c([N+](=O)[O-])c(=O)[nH]1`, the TGI in assay [1], in [2], in [4], in assay [6], in assay [7] and in assay [8] was above 100 µM in each case. This molecule yielded a TGI in [9] above 100 µM.
As to `O=C1/C(=C/c2ccc(Cl)cc2)Oc2cc(O)ccc21`, the TGI in [1] was above 100 µM; in assay [2], above 100 µM; in [3] it was above 100 µM; in assay [4], above 100 µM; in assay [5] it was above 100 µM; in assay [6], 78.8 µM. The TGI was 61.2 µM in assay [8] and above 100 µM in assay [9].
For `Cc1cc2nc3c(C#N)c4c(c(Nc5ccc(F)cc5)n3c2cc1C)CCC4`, the TGI in assay [1], in [2], in assay [3], in assay [4], in [5] and in assay [6] was above 100 µM throughout. For the same molecule, the TGI in assay [7], in [8] and in [9] was above 100 µM in each case.
